Laboratory results: article PMC10938783, “A novel pan-PI3K inhibitor KTC1101 synergizes with anti-PD-1 therapy by targeting tumor suppression and immune activation” (Molecular Cancer, 2024)

Assays:
[1] = system: kinase panel comprising 50 kinases; experiment: Kinase profiling, panel of 50 kinases; format: biochemical; settings: 1 μM
Procedure: Procedures for the preparation of KTC1101 are described in supplemental data. To investigate the PI3K inhibitory efficacy of KTC1101, its impact on the kinase activity of PI3K isoforms was assessed using the Adapta kinase assay as previously reported. Initially, a dilution series of 2.5 µL KTC1101 or DMSO (control) was prepared and added to the respective wells of a 384-well plate. Subsequently, optimized 2.5 µL kinase solutions, including PIK3CA/PIK3R1, PIK3CB/PIK3R1, PIK3CG, and PIK3CD/PIK3R1, were introduced to each well. After adding the kinase solutions, 5 µL ATP and PIP2:PS lipid kinase substrate was introduced into each well and incubated for 1 h at room temperature. This step allows for the initiation and progression of the kinase reaction. Following the incubation, a detection solution (5 µL) was added to all the wells. This solution contained 30 mM EDTA to stop the kinase reaction, 6 nM Eu-labeled anti-ADP antibody, and a 3 × concentration of Alexa Fluor® 647 ADP tracer. The EDTA effectively terminates the kinase reaction, while the anti-ADP antibody and ADP tracer are crucial for the detection of ADP produced during the kinase reaction, which correlates with PI3K activity. […] Finally, the fluorescence of each well was measured using a Multi-Mode Microplate Reader (Spark, Tecan). […]

[2] = system: CAL33 cells; experiment: Cell proliferation MTT assay; format: cell-based; settings: Homo sapiens, CAL-33; CAL33, 48-h treatment; read-out: IC50 cell viability
Procedure: (§1) Cell proliferation was measured by MTT assay as previously described. The cells were seeded in a volume of 200 μL/well in 96-well plates. The next day, cells were treated with DMSO or a series of concentrations of KTC1101. After a 48-h incubation period, 20 μL of MTT (5 mg/mL) was added to each well. After further incubation for 4 h at 37 °C, the absorbance at 490 nm was measured using an iMark microplate reader (BIO-RAD, Hercules, CA, USA).

[3] = system: HSC2 cells; experiment: Cell proliferation MTT assay; format: cell-based; settings: Homo sapiens, HSC-2; HSC2, 48-h treatment; read-out: IC50 cell viability
Procedure: as §1

[4] = system: HSC4 cells; experiment: Cell proliferation MTT assay; format: cell-based; settings: Homo sapiens, HSC-4; HSC4, 48-h treatment; read-out: IC50 cell viability
Procedure: as §1

[5] = system: PC3 cells; experiment: Cell proliferation MTT assay; format: cell-based; settings: Homo sapiens, PC-3; PC3, 48-h treatment; read-out: IC50 cell viability
Procedure: as §1

[6] = system: TMD8 cells; experiment: Cell proliferation MTT assay; format: cell-based; settings: Homo sapiens; TMD8, 48-h treatment; read-out: IC50 cell viability
Procedure: as §1

[7] = Acute toxicity study; format: in vivo; settings: both sexes, mouse, in vivo, oral; BALB/c mice, acute toxicity
Procedure: (§2) All mice care and experimental protocols were approved by the Ethical Committee of Tianjin Medical University (permit number: TMUaMEC 2023036). Preliminary testing was conducted on 6 groups of BALB/c mice (half male, half female, 18–22 g), fasted but not water-deprived for 12 h, and administered different doses of KTC1101 (200 to 6400 mg/kg). […] The LD50 was calculated based on the doses causing 0% and 100% mortality in animals. Subsequent testing was done using doses determined from the preliminary study. Each dose was administered to a single animal, with a 72-h interval between dosages. The administration continued until one of the following criteria was met: (a) three consecutive animals survived; (b) a transition from survival to death occurred in 5 out of 6 consecutive animals; (c) at least four animals were tested after the first transition, with an estimated LD50 range exceeding the critical value (2.5 times). The LD50 and its confidence interval were calculated, and the maximum likelihood method was used to determine the LD50 value using the AOT425StatPgm software.

[8] = system: BALB/c mice; experiment: Acute toxicity study; format: in vivo; settings: symbols O/X not defined
Procedure: as §2

[9] = system: TMD8 tumors; experiment: TMD8 xenograft in NSG mice; format: in vivo, mouse
Procedure: BALB/c nude, NSG, and C57BL/6J mice were obtained from Tianjin Medical University. The housing temperature was controlled, ranging from 20.5–24 °C, and humidity was monitored but not controlled ranging from 30–70%. The 12-h daily light cycle was from 06:00 to 18:00. To generate a murine subcutaneous tumor model, PC3 and HSC2 cells were subcutaneously injected into the right lateral flank of 4- to 5-week-old male BALB/c nude mice. TMD8, CAL33, and S24 cells were subcutaneously injected into the right lateral flank of 4- to 5-week-old male NSG mice. When tumors reached a volume of 300–500 mm^3, they were excised, diced into 2 mm × 2 mm × 2 mm pieces, and implanted into the right flanks of BALB/c nude or NSG mice. Tumors were allowed to grow to a volume of 100 mm^3, and then the animals were randomly divided into several groups. Each group of five mice was treated with either vehicle or KTC1101 (25, 50, or 100 mg/kg, PO). Tumor size was measured every 3 d or 4 d until the endpoint. The tumor volume was calculated using the following formula: length × width × height/2. At the end of the experimental period, mice were euthanized by overdosing on pentobarbital sodium, and the tumors were removed. Tumor tissue was formalin-fixed and paraffin-embedded for histological analysis.

[10] = system: B16 tumor-bearing C57BL/6 mice; experiment: Toxicity and safety profiling in vivo (serum biochemistry, routine blood, H&E); parameters: species or system mouse; settings: hematological parameters in the blood
Procedure: The B16 tumor-bearing C57BL/6 mice were divided into 4 groups randomly (n = 3 per group) and treated with vehicle, KTC1101 (100 mg/kg 3on/4off, PO), anti-PD-1 antibody (250 μg per mouse, IP), or a combination of KTC1101 and anti-PD-1 antibody. After 14 days of treatment, all mice were sacrificed. Blood samples were collected for analysis; one portion was centrifuged (3000 rpm, 4 °C) to obtain serum for biochemical parameter analysis, including alanine aminotransferase (ALT), aspartate aminotransferase (AST), creatinine (CREA), and blood urea nitrogen (BUN). The other portion was used for routine blood examination. Major organs including the heart, liver, spleen, lung, and kidney were collected, sectioned, and stained with H&E for histopathological evaluation.

COc1cc(N)cc2c1nc(C(F)F)n2-c1nc(N2CCCOCC2)nc(N2CCOCC2)n1 [KTC1101, 2-(difluoromethyl)-4-methoxy-1-(4-morpholino-6-(1,4-oxazepan-4-yl)-1,3,5-triazin-2-yl)-1H-benzo[d]imidazol-6-amine]
inhibition rate, all four PI3K targets [1]: greater than 90% | inhibition rate, other kinases of the panel [1]: less than 50% | IC50 [2]: 124 nM | IC50 [3]: 117 nM | IC50 [4]: 50.6 nM | IC50 [5]: 23.2 nM | IC50 [6]: 20.6 nM | LD50 at 7 days [7]: 2140 mg/kg | Score ([8]; real dose 1750 mg/kg): OOO | Score ([8]; real dose 2275 mg/kg): XXX | tumor growth ([9]; 100 mg/kg PO): slowed tumor progression | efficacy versus ZSTK474 and Copanlisib ([9]; 100 mg/kg and 125 mg/kg PO): marginally outperformed those of 200 mg/kg ZSTK474 orally and was comparable to 14 mg/kg Copanlisib intravenously | GRAN [10]: 0.93±0.67 109L-1 | MCV [10]: 52.90 ± 8.84 fL | PLT [10]: 745.00±220.75 109L-1 | RBC [10]: 6.03±2.50 1012L-1 | RDW [10]: 17.97±3.41% | WBC [10]: 3.67±3.06 109L-1
